Test system: breast carcinoma xenograft (50% MDA MB361 cells expressing β-galactosidase plus 50% MDA MB361-STCPG2(O)3 cells expressing surface tethered carboxypeptidase G2 …)
Set-up: species or system Nu/Nu BalbC mouse
Conditions: mouse, in vivo

Structure (SMILES)	time for which a 50% survival rate was provided	time up to which 50% survival was found post-treatment
O=C(O)CC[C@H](NC(=O)c1cc(F)c(N(CCI)CCI)c(F)c1)C(=O)O [Example 1, {3,5-difluoro-4-[bis(2-iodoethyl)amino]benzoyl}-L-glutamic acid]	over 200 days	–
O=C(O)CC[C@H](NC(=O)c1ccc(N(CCCl)CCCl)c(F)c1)C(=O)O [B, {3-fluoro-4-[bis(2-chloroethyl)amino]benzoyl}-L-glutamic acid]	–	about 70 days

— patent US6852755B1 (priority 1999, dated 2005)
